In US6071950A, “N-substituted pyrrolidine derivatives and process for preparing the same” (Kyorin Pharmaceutical Co., Ltd., priority 1996, dated 2000):

Experiments:
[1] = system: pupil; test: Diameter of pupil in the restraint stress model (in vivo test); design: species or system rat; details: Wistar male rats, 10 mg/kg orally
Protocol: (§1) 4. Inhibitory effect in the defecation model under restraint stress (in vivo test)
(§2) Wistar strain male rats were employed. Testing drug was administered orally at 10 mg/kg and, after 30 minutes, the restraint stress was given by fixing the forefeet of rat on back side under anesthetization with ether. Moreover, the diameter of pupil (mm) was also measured.
(§3) After allowed to stand for 1 hour in separate cage, the defecation level and diameter of pupil were measured.

[2] = biological target: T1, heart muscarine receptors (Cavia porcellus, UniProt H0VRN8); test: Antagonism action on the acetylcholine-induced negative chronotropic action of atrium of heart (in vitro test); details: guinea pig atrium of heart, Schild plot, acetylcholine 10^-9 M~3×10^-6 M, 32° C., read-out: pA2 Atrium (converted)
T1 construct: The heart was removed to make a preparation of atrium of heart; from tissue; host or cells: isolated atrium of Hartley male guinea pig
T1 sequence (H0VRN8 1-466): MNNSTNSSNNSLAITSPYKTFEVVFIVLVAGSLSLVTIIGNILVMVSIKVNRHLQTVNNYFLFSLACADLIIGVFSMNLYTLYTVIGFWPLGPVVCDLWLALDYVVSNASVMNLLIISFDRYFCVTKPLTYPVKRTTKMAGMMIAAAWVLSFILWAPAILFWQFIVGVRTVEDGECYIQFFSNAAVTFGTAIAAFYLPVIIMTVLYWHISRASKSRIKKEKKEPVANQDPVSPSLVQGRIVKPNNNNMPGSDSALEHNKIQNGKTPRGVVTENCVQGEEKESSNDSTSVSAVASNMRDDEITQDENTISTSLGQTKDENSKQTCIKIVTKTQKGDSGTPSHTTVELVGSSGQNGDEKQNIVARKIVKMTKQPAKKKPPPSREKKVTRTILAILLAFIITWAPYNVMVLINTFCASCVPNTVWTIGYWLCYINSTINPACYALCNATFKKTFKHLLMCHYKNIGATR
Protocol: 3. Antagonism action on the acetylcholine-induced negative chronotropic action of atrium of heart (in vitro test)
Hartley male guinea pig was killed by stunning and bleeding. The heart was removed to make a preparation of atrium of heart. The preparation was mounted in a 10 ml organ bath filled with Krebs-Henseleit solution of 32° C. that was bubbled with 95% O2 /5% CO2. The initial resting tension was made to be 0.5 g and measurement of isometric muscle tension was recorded.
(§4) The action of testing drug is shown in terms of pA2 determined from Schild plot of the extent of right shift of the concentration-response curve on 10^-9 M~3×10^-6 M of acetylcholine.

[3] = biological target: T2, ileum muscarine receptors (Cavia porcellus, UniProt H0W1Z3); test: Antagonism on the acetylcholine-induced contraction of ileum (in vitro test); details: guinea pig ileum, Schild plot, acetylcholine 10^-9 M~3×10^-6 M, 28° C., read-out: pA2 Ileum (converted)
T2 construct: The ileum was removed to make a 1.5 to 2 cm preparation; from tissue; host or cells: isolated ileum of Hartley male guinea pig
T2 sequence (H0W1Z3 1-590): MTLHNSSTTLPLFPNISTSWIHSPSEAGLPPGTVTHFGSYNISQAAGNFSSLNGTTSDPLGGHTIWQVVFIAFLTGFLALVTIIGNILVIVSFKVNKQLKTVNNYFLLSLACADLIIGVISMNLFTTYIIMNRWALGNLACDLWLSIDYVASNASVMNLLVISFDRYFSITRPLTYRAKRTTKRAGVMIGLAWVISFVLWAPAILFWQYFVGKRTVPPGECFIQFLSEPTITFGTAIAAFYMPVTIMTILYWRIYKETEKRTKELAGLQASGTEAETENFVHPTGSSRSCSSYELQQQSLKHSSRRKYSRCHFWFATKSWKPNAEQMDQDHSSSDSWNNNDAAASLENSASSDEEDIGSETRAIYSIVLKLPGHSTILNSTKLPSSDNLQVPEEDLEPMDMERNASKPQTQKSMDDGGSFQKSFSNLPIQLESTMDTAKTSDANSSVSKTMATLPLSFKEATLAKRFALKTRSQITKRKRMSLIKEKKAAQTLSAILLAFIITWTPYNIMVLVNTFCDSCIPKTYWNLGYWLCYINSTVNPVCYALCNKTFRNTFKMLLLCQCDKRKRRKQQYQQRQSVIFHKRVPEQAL
Protocol: 1. Antagonism on the acetylcholine-induced contraction of ileum (in vitro test)
Hartley male guinea pig was killed by stunning and bleeding. The ileum was removed to make a 1.5 to 2 cm preparation. The preparation was mounted in a 10 ml organ bath filled with Tyrode's solution of 28° C. that was bubbled with 95% O2 /5% CO2. The initial resting tension of 1 g was applied to the preparation and measurement of isomeric muscle tension was recorded.
as §4

[4] = system: defecation model under restraint stress; test: Inhibitory effect in the defecation model under restraint stress (in vivo test); design: species or system rat; details: Wistar male rats; 10 mg/kg orally, restraint stress 30 minutes later; defecation measured after 1 hour
Protocol: as §1, §2, §3
The inhibitory rate of defecation was determined from following formula.

[5] = biological target: T3, sphincter muscle of the pupil (Oryctolagus cuniculus, UniProt G1U308); test: Antagonism on the acetylcholine-induced contraction of pupil (in vitro test); details: rabbit sphincter muscle of the pupil, Schild plot, acetylcholine 10^-6 M~10^-2 M, 30° C., read-out: pA2 Pupil (converted)
T3 construct: The eyeball was removed to make a preparation of sphincter muscle of the pupil; from tissue; host or cells: isolated pupillary sphincter muscle of Japanese white male rabbit
T3 sequence (G1U308 entry or part of it): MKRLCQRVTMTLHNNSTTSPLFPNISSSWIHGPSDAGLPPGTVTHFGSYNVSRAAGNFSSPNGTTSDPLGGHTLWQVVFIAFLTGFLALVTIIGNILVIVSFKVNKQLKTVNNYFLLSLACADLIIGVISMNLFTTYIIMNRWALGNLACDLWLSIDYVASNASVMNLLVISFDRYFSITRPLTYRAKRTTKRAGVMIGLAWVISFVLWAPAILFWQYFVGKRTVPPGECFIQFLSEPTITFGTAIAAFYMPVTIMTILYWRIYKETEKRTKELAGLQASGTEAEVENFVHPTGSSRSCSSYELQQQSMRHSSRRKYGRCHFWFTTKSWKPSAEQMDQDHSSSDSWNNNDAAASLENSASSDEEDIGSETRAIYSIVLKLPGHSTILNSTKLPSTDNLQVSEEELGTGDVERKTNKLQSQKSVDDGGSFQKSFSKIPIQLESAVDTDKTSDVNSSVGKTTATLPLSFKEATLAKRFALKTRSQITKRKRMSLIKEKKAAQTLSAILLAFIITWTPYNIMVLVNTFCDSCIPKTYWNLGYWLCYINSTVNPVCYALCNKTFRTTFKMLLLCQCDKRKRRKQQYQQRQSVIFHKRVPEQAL
Protocol: 2. Antagonism on the acetylcholine-induced contraction of pupil (in vitro test)
Japanese white male rabbit was anesthetized using sodium pentobarbital and killed by bleeding. The eyeball was removed to make a preparation of sphincter muscle of the pupil. The preparation was mounted in a 10 ml organ bath filled with Krebs solution of 30° C. that was bubbled with 95% O2 /5% CO2. The initial resting tension of 0.2 g was applied to the preparation and measurement of isometric muscle tension was recorded.
The action of testing drug is shown in terms of pA2 determined from Schild plot of the extent of right shift of the concentration-response curve on 10^-6 M~10^-2 M of acetylcholine.

In the case of NC(=O)C(CCN1CCC(OCc2cccc(Cl)c2)C1)(c1ccccc1)c1ccccc1 (stereo not drawn) [Example 9, 4-[3-(3-chlorobenzyloxy)pyrrolidine-1-yl]-2,2-diphenylbutaneamide], the “Diameter of pupil (mm), Immediately after restraint” value ([1]; Control 0.44) is reported as 0.43 mm, the “Diameter of pupil (mm), After restraint” value ([1]; after 1 hour, Control 0.48) is reported as 0.45 mm and the Kb [2] is reported as 631 nM. The Kb [3] was 25.1 nM, the “Inhibitory rate of defecation (%)” value [4] was 48.9% and the Kb [5] was 50.1 nM.
